Data as given in patent publication US9962465B2, “Amelogenin-chitosan hydrogel for dentin hypersensitivity” (UNIVERSITY OF SOUTHERN CALIFORNIA, priority 2015, dated 2018).

Tests used:
[1] = Nanoindentation test of the newly regenerated layer (modulus, hardness); parameters: species or system Human; details: for mechanical properties of the newly formed layer compared with healthy dentin: peptide only treatment; for surface hardness of dentin lesions: peptide only, 5 days
Method: Human third molars were sectioned transversally into 2 mm thick slices at the mid-coronal region of the tooth. A window of sound dentin measuring 2×2 mm each was delineated by applying two coats of acid-resistant nail varnish on the tooth surfaces. To mimic carious lesions, the samples were immersed in a demineralizing solution (pH 4.6, 30 ml) at 37° C. for 3 days. Twenty μl of peptide only (LRAP, P32, P26) and peptide-chitosan hydrogel (200 μg/ml) were applied separately on the demineralized windows (2 applications: Days 1 & 5) and the tooth slices were immersed in artificial saliva (pH 7, 5 ml) at 37° C. for 5 and 10 days. The artificial saliva includes 1.2 mM Ca^2+, 0.2 mM Mg^2+ 0.7 mM H2PO4^−, 16 mM KCl, 4.5 mM NH4Cl and 50 mM Hepes in water. The artificial saliva solution (5 ml) was changed daily from days 1-10.
FIGS. 18A, 18B, 18C, and 18D provide nanoindentation test results showing changes in the modulus (A,B) and hardness (C, D) of the newly regenerated layer after being treated with peptide only and peptide-chitosan hydrogel for 5 and 10 days. Treatment with LRAP and P32 restored surface hardness of dentin lesions in 5 days.

[2] = TEM of peptide self-assembly; format: physicochemical; details: pH 7.4, HEPES buffer, 25° C.
Source text: (Ref: doi:10.1016/j.jsb.2011.07.016).

Sequence	mechanical properties of the newly formed layer compared with healthy dentin [1]	surface hardness of dentin lesions [1]	TEM assembly morphology [2]
MPLPPHPGHPGYINFSYEVLTPLKWYQSIRPPPLPPMLPDLTLEAWPSTDKTKREEVD (listed as Homo sapiens) [LRAP, leucine rich amelogenin polypeptide, alternatively spliced isoform of amelogenin]	superior mechanical properties than healthy dentin	restored	
MPLPSYEVLTPLKWPVHPMQPSTDKTKREEVD (Amelogenin-derived polypeptide) [Peptide P32, Artificial amelogenin-derived polypeptide]	superior mechanical properties than healthy dentin	restored	uniformly-dispersed spherical assemblies
